According to PMC9655119, “Sustained Activation of CLR/RAMP Receptors by Gel-Forming Agonists” (International Journal of Molecular Sciences, 2022):

Columns and labels:
Type in all cases: cell-based
[1] = test system: primary human lymphatic microvascular endothelial (HLME) cells; test: HLME cell survival (MTT assay); settings: 30, 100, 300 nmoles/L, medium with 0.1% FBS, 72 h, quintuplicate samples
Method: Primary human lymphatic microvascular endothelial cells (HLME cells; Cell Applications, Inc., San Diego, CA, USA) were maintained in a microvascular endothelial cell growth medium supplemented with 10% fetal bovine serum (FBS). […] After 72-h incubation, cell viability was determined with the 3-(4,5-dimethylthiazol-2-yl)-2,5-diphenyltetrazolium bromide (MTT) assay (Promega). To evaluate the effects on endothelial cell survival, HLME cells were treated with different concentrations of the agonist or controls (30, 100, and 300 nmoles/L) and cultured in a basal medium with 0.1% FBS for 72 h. Cell viability was then assayed with the MTT assay.

human CLR/RAMP2 = biological target: T1, human CLR/RAMP2 (Homo sapiens, UniProt O60895+Q16602); test: CLR/RAMP2 receptor-activation assay (PathHunter β-Arrestin); settings: […], read-out: CLR/RAMP2 Max Activity
T1 construct: host or cells: CHO-K1 cells (PathHunter β-Arrestin cell line)
Method: (§1) The bioactivity of peptide analogs was studied using CLR/RAMP1, CLR/RAMP2, and CLR/RAMP3 assays by DiscoveRx (Fremont, CA, USA) in cells that stably express human CLR/RAMP1 (1321N1 cells), CLR/RAMP2 (CHO-K1 cells), or CLR/RAMP3 (CHO-K1 cells). The dose-dependent stimulatory effect of agonists was studied in duplicate, at 10 different concentrations. Determination of the half-maximal effective concentration (EC50) was performed using a 10-point dose-response curves. The starting concentration was 1.0 μM, and it was serially diluted 3-fold, in DMSO.
In this assay, the CLR was fused in frame with a small enzyme donor fragment ProLink™ (PK). The receptor was co-expressed with a fusion protein of β-arrestin and an N-terminal deletion mutant of β-galactosidase (i.e., enzyme acceptor). Activation of the CLR/RAMP2 receptor stimulated the binding of β-arrestin to the PK-tagged receptor and led to an increase in enzyme activities which can then be measured with the PathHunter detection reagents. PathHunter cell lines were seeded in a total volume of 20 μL into 384-well microplates and incubated at 37 °C prior to the assay. Intermediate dilution of samples was performed to generate 5X samples in the assay buffer. A 5 μL aliquot of 5X sample was added to cells and incubated at 37 °C for 90 min. Vehicle concentration was 1%.

human CLR/RAMP1 = biological target: T2, human CLR/RAMP1 (Homo sapiens, UniProt O60894+Q16602); test: CLR/RAMP1 receptor-activation assay (DiscoverX cAMP Hunter, HitHunter cAMP XS+); settings: read-out: CLR/RAMP1 Max Activity
T2 construct: host or cells: 1321N1 cells (cAMP Hunter cell line)
Method: as §1
Cells were seeded in a total volume of 20 μL into 384-well microplates, and the activity was determined using the DiscoverX HitHunter cAMP XS + assay. Before the assay, media was aspirated from cells and replaced with 15 μL 2:1 HBSS/10 mM Hepes: cAMP XS + Ab reagent. Intermediate dilution of samples was performed to generate 4X sample in assay buffer, and 5 μL of the 4X sample was added to cells and incubated at 37°C. Vehicle concentration was 1%.
The chemiluminescent signal was read with a PerkinElmer instrument.

T2 sequence (Q16602 23-461): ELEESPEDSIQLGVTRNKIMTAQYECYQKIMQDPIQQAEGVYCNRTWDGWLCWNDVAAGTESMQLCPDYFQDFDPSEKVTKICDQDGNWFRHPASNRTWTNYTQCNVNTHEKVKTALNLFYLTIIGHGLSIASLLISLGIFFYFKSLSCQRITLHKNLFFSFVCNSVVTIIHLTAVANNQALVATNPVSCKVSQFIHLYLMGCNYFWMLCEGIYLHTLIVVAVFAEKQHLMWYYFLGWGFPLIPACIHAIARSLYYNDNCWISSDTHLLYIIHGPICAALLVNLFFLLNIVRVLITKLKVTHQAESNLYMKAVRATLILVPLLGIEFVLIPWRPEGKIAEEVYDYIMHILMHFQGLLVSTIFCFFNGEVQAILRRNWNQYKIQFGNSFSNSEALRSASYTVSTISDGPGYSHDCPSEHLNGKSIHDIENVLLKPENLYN
T2 sequence (O60894 27-148): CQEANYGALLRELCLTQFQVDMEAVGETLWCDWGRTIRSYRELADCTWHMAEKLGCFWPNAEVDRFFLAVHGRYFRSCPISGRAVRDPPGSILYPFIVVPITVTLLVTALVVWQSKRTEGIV
T1 sequence (Q16602 23-461): as the sequence (Q16602 23-461) above
T1 sequence (O60895 43-175): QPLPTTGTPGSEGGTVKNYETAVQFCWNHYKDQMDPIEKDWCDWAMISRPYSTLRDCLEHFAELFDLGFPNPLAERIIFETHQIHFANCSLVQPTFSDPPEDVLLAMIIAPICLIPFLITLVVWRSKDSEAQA

CC[C@H](C)[C@H](NC(=O)[C@H](CCC(N)=O)NC(=O)[C@H](Cc1c[nH]cn1)NC(=O)[C@H](C)NC(=O)[C@H](CC(C)C)NC(=O)[C@H](CCCCN)NC(=O)[C@H](CCC(N)=O)NC(=O)[C@@H](NC(=O)[C@@H](NC(=O)[C@@H]1CSSC[C@H](NC(=O)CNC(=O)[C@H](CCCCN)NC(C)=O)C(=O)N[C@@H](CCCNC(=N)N)C(=O)N[C@@H](Cc2ccccc2)C(=O)NCC(=O)N[C@@H]([C@@H](C)O)C(=O)N1)[C@@H](C)O)C(C)C)C(=O)N[C@@H](Cc1ccc(O)cc1)C(=O)N[C@@H](CCC(N)=O)C(=O)N[C@@H](Cc1ccccc1)C(=O)N[C@H](C(=O)N[C@@H](CC(=O)O)C(=O)N[C@@H](CCCCN)C(=O)N[C@@H](CC(=O)O)C(=O)N[C@@H](CCCCN)C(=O)N[C@@H](CC(=O)O)C(=O)N[C@@H](CC(N)=O)C(=O)N[C@@H](CO)C(=O)N[C@@H](C)C(=O)N1CCC[C@H]1C(=O)N[C@H](C(=O)N[C@@H](CC(=O)O)C(=O)N1CCC[C@H]1C(=O)N[C@@H](CO)C(=O)N[C@@H](CO)C(=O)N1CCC[C@H]1C(=O)N[C@@H](Cc1c[nH]cn1)C(=O)N[C@@H](CO)C(=O)N[C@@H](Cc1ccc(O)cc1)C(N)=O)C(C)C)[C@@H](C)O [Analog B-6]
effect on HLME cell survival [1]: minimal effects

CCCCCCCCCCCCCCCC(=O)NCCCC[C@H](NC(=O)COCCOCCN)C(=O)NCC(=O)N[C@H]1CSSC[C@@H](C(=O)N[C@H](C(=O)N[C@H](C(=O)N[C@@H](CCC(N)=O)C(=O)N[C@@H](CCCCN)C(=O)N[C@@H](CC(C)C)C(=O)N[C@@H](C)C(=O)N[C@@H](Cc2c[nH]cn2)C(=O)N[C@@H](CCC(N)=O)C(=O)N[C@H](C(=O)N[C@@H](Cc2ccc(O)cc2)C(=O)N[C@@H](CCC(N)=O)C(=O)N[C@@H](Cc2ccccc2)C(=O)N[C@H](C(=O)N[C@@H](CC(=O)O)C(=O)N[C@@H](CCCCN)C(=O)N[C@@H](CC(=O)O)C(=O)N[C@@H](CCCCN)C(=O)N[C@@H](CC(=O)O)C(=O)N[C@@H](CC(N)=O)C(=O)N[C@H](C(=O)N[C@@H](CC(=O)O)C(=O)N2CCC[C@H]2C(=O)N[C@@H](CO)C(=O)N[C@@H](CO)C(=O)N2CCC[C@H]2C(=O)N[C@@H](Cc2c[nH]cn2)C(=O)N[C@@H](CO)C(=O)N[C@@H](Cc2ccc(O)cc2)C(N)=O)C(C)C)[C@@H](C)O)[C@@H](C)CC)C(C)C)[C@@H](C)O)NC(=O)[C@H]([C@@H](C)O)NC(=O)CNC(=O)[C@H](Cc2ccccc2)NC(=O)[C@H](CCCNC(=N)N)NC1=O [Analog D-4]
Emax (human CLR/RAMP2): 82%
Emax (human CLR/RAMP1): 67%

CCCCCCCCCCCCCCCC(=O)NCCCC[C@H](NC(=O)COCCOCCN)C(=O)NCC(=O)N[C@H]1CSSC[C@@H](C(=O)N[C@H](C(=O)N[C@H](C(=O)N[C@@H](CCC(N)=O)C(=O)N[C@@H](CCCCN)C(=O)N[C@@H](CC(C)C)C(=O)N[C@@H](C)C(=O)N[C@@H](Cc2c[nH]cn2)C(=O)N[C@@H](CCC(N)=O)C(=O)N[C@H](C(=O)N[C@@H](Cc2ccc(O)cc2)C(=O)N[C@@H](CCC(N)=O)C(=O)N[C@@H](Cc2ccccc2)C(=O)N[C@H](C(=O)N[C@@H](CC(=O)O)C(=O)N[C@@H](CCCCN)C(=O)N[C@@H](CC(=O)O)C(=O)N[C@H](C(=O)N[C@@H](C)C(=O)N2CCC[C@H]2C(=O)N[C@@H](CCCNC(=N)N)C(=O)N[C@@H](CO)C(=O)N[C@@H](CCCCN)C(=O)N[C@H](C(=O)N[C@@H](CO)C(=O)N2CCC[C@H]2C(=O)N[C@@H](CCC(N)=O)C(=O)NCC(=O)N[C@@H](Cc2ccc(O)cc2)C(N)=O)[C@@H](C)CC)C(C)C)[C@@H](C)O)[C@@H](C)CC)C(C)C)[C@@H](C)O)NC(=O)[C@H]([C@@H](C)O)NC(=O)CNC(=O)[C@H](Cc2ccccc2)NC(=O)[C@H](CCCNC(=N)N)NC1=O [Analog D-6]
Emax (human CLR/RAMP2): 74%
Emax (human CLR/RAMP1): 56%
